These results are taken from patent US5998433A, “Condensed compounds, their production and use” (Takeda Chemical Industries, Ltd., priority 1994, dated 1999).

In general, MIC refers to the lowest concentration that inhibits growth of the organism. As a reminder, the IC50 is the concentration needed to halve the response being measured.

Structures can show the parent of a compound that is named as a salt.

For test [1], the system named is Aspergillus niger IFO 4414. Description: Antifungal activity (agar plate dilution method), organism I. It counts as cell-based. The settings on record: IFO4414, 35° C., 20 hours, pH 7.0. On the procedure: (§1) Determination of Antifungal Activity (Agar Plate Dilution Method)
(§2) RPMI 1640 (Gibco BRL) was dissolved in 0.3 M MOPS buffer, pH 7.0, to obtain a 2-fold dilution; this solution was filtered to remove germ cells (0.45 μm). Separately, 1.4% agar (Wako Pure Chemical Industries) was thermally sterilized (121° C., 15 minutes). This agar was mixed with an equal amount of the above 2-fold diluted RPMI 1640 (0.15 M MOPS, pH 7.0). To 9.9 ml of this RPMI 1640 (0.15 M MOPS, pH 7.0)-0.7% agar medium, 0.1 ml of a 100-fold diluted DMSO solution of the test drug was added; this mixture was prepared as an agar plate in a petri dish 9 cm in diameter. The drug (dissolved in DMSO to 100-fold dilution) was used in a series of 2-fold dilutions of a starting concentration of 64 μg/ml in the agar medium. For drug-free control, an agar medium containing 0.1 ml of DMSO or […] of sterile water was prepared. An inoculum of frozen cells was diluted with physiological saline and spot inoculated onto the agar medium (0.005 ml; 700-15,000 cfu) using a microplanter (Sakuma Seisakusho), followed by cultivation at 35° C. for 20 hours. Antifungal activity was assessed macroscopically; the minimum concentration for complete growth inhibition was expressed as MIC (minimum growth inhibitory concentration).

For test [2], the system named is Candida tropicalis IFO 0587. Description: Antifungal activity (agar plate dilution method), organism B. The class given is cell-based. The settings on record: IFO0587, 35° C., 20 hours, pH 7.0. On the procedure: as §1, §2
The subject of test [3] is Candida albicans IFO 0583. Description: Antifungal activity (agar plate dilution method), organism A. It counts as cell-based. The settings on record: IFO0583, 35° C., 20 hours, pH 7.0. On the procedure: as §1, §2
Test [4] relates to Aspergillus fumigatus IFO 6344. Description: Antifungal activity (agar plate dilution method), organism H. The class given is cell-based. The settings on record: IFO6344, 35° C., 20 hours, pH 7.0. The method, then:
as §1, §2

Another test concerns Candida utilis IFO 0619. The test is described as follows: Antifungal activity (agar plate dilution method), organism G. The class given is cell-based. The settings on record: Williopsis jadinii, IFO0619, 35° C., 20 hours, pH 7.0. On the procedure:
as §1, §2

Test [5] relates to Candida glabrata IFO 0622. Description: Antifungal activity (agar plate dilution method), organism D. It counts as cell-based. The settings on record: Nakaseomyces glabratus, IFO0622, 35° C., 20 hours, pH 7.0. The method, then:
as §1, §2

The subject of the next test is Candida krusei IFO 1162. The test is described as follows: Antifungal activity (agar plate dilution method), organism F. The settings on record: Pichia kudriavzevii, IFO1162, 35° C., 20 hours, pH 7.0. The class given is cell-based. The method, then: as §1, §2
Test [6] deals with T1, 2,3-oxidosqualene cyclase (Rattus norvegicus, UniProt P48450).
T1 construct: The supernatant was thus obtained as a crude enzyme solution; from tissue; host or cells: liver of male SD rat, microsome fraction solubilised with n-dodecyl beta-D-maltoside
T1 sequence (P48450 1-733): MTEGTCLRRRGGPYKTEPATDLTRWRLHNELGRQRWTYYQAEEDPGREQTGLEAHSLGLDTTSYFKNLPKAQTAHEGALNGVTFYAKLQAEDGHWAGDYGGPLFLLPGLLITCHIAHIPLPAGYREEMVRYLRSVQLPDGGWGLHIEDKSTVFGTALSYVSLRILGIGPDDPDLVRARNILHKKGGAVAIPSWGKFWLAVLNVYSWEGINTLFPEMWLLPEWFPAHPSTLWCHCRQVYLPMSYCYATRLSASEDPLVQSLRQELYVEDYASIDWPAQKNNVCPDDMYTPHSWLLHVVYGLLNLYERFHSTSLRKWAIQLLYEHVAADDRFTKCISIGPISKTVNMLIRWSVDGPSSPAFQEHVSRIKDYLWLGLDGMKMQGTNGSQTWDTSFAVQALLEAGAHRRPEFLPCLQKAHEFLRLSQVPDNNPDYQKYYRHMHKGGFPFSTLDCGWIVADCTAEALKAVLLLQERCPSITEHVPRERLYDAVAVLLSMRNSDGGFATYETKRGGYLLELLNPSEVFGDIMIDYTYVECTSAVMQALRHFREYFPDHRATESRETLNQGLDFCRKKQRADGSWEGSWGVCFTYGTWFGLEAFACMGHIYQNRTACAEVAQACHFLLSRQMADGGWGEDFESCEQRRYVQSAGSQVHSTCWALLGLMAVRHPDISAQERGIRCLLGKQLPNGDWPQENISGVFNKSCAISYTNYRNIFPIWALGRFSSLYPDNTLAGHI
The test is described as follows: Inhibition of 2,3-oxidosqualene cyclase activity (crude rat liver enzyme, lanosterol production, GC/Mass). The class given is biochemical. The settings on record: 37° C., 20 minutes, pH 7.5; read-out: Oxidosqualene Cyclase Inhibitory Activity IC50. On the procedure: Inhibition of 2,3-oxidosqualene Cyclase Activity
1) Preparation of Crude Rat Enzyme
After a male SD rat (6 weeks of age) was sacrificed by bleeding, the liver was excised. About 50 g of the liver was washed with ice-cold physiological saline and homogenized in 75 ml of ice-cold buffer [100 mM potassium phosphate buffer (pH 7.4), 15 mM nicotinamide, 2 mM MgCl2 ] and centrifuged at 10,000×g for 20 minutes (4° C.). The resulting supernatant was further centrifuged at […] for 90 minutes (4° C.) and the resulting sediment was suspended in ice-cold 100 mM potassium phosphate buffer (pH 7.4), and again centrifuged at 105,000×g for 90 minutes (4° C.). […]
To 200 μl of a reaction mixture containing […] 2,3-oxidosqualene, 50 mM Tris-HCl (pH 7.5), 0.5 mM EDTA, 0.5 mM dithiothreitol, 0.1% Tween 80, 0.25% n-dodecyl β-D-maltoside and the test drug, the crude enzyme (protein content 40 μg) was added and incubated at 37° C. for 20 minutes. […] The resulting lanosterol was quantitated with the cholestane as internal standard (gas chromatograph: Yokogawa-Hewlett-Packard HP-5890J; column: Yokogawa-Hewlett-Packard ULTRA-1, 0.32 mm dia., 0.52μ, 10 m; mass analyzer: JEOL JMS-DX303/DA5000). […]

A further test concerns Candida krusei IFO 0584. Description: Antifungal activity (agar plate dilution method), organism E. The settings on record: Pichia kudriavzevii, IFO0584, 35° C., 20 hours, pH 7.0. It counts as cell-based. On the procedure: as §1, §2
Test [7] deals with Cholesterogenesis in Rat Liver. The test is described as follows: Inhibition of cholesterogenesis in rat liver ([14C] acetic acid incorporation). The settings on record: by stomach tube, lower values indicate higher inhibitory activity. The class given is in vivo, male Sprague-Dawley rats. The method, then: Inhibition of Cholesterogenesis in Rat Liver
An aqueous solution of the test drug was administered, by a stomach tube, to male Sprague-Dawley rats at 5 weeks of age; 1 hour later, [^14 C] acetic acid was intravenously administered at a dose of 10 μCi per animal. One hour later, the animals were bled, livers were excised and a portion of liver was treated with a chloroform:methanol mixture to extract lipids. After the lipid fraction was saponified, sterol was extracted with petroleum ether, precipitated using digitonin and the radioactivity in the precipitate fraction was determined using a scintillation counter. The control group orally received 0.5% methyl cellulose solution alone.
The results are shown in Table 3 (lower percent control values indicate higher cholesterol synthesis inhibitory activity).

For test [8], the system named is Candida tropicalis IFO 10241. The test is described as follows: Antifungal activity (agar plate dilution method), organism C. The class given is cell-based. The settings on record: IFO10241, 35° C., 20 hours, pH 7.0. The method, then:
as §1, §2

The next test concerns LDL receptor. The test is described as follows: Low-density lipoprotein (LDL) receptor-increasing activity in HepG2 cells. It counts as cell-based, human. The settings on record: 20 hours, mean ± SD (n = 3). The method, then: Determination of Low-density Lipoprotein (LDL) Receptor-increasing Activity
Human hepatoma cell line HepG2 was seeded to 96-multiwell plates (10^4 cells/well) and cultured for 5 days in Dulbecco's minimal essential medium (DMEM) medium supplemented with 10% inactivated fetal bovine serum, followed by 20 hours of pretreatment in 100 μl of DMEM medium containing 10% lipoprotein-deficient fetal bovine serum and the test compound. After being washed with Dulbecco's phosphate-buffered saline (PBS), the cells were fixed in 4% formalin at room temperature for 1 hour. Three hundreds μl of PBS containing 3% bovine serum albumin was added; the mixture was kept standing at 5° C. overnight, after which the PBS was replaced with 50 μl of PBS containing both 5 μg/ml anti-LDL receptor monoclonal antibody (Oncogene Science) and 0.5% bovine serum albumin, followed by incubation at room temperature for 2 hours. After the cells were washed with PBS containing both 0.05% Triton X-100 and 0.5% bovine serum albumin (Triton-containing PBS), 50 μl of 400-fold diluted peroxidase-labeled anti-mouse antibody (produced by BIO-RAD) was added, followed by incubation at room temperature for 1 hour. After the cells were washed with Triton-containing PBS, peroxidase activity was determined using a Peroxidase Assay Kit A (Sumitomo Bakelite Co., Ltd.). LDL receptor-inducing activity was calculated by comparing the peroxidase activity with control activity; data were analyzed for significant difference by Student's t-test. Blank determination was performed in the absence of the anti-LDL receptor monoclonal antibody.

In the case of `CN(C)Cc1cc2c(o1)CN(C(=O)CCCCCc1ccccc1)CC2` [Example 5, 1-(2-dimethylaminomethyl-5,7-dihydro-4H-furo[2,3-c]pyridin-6-yl)-6-phenylhexan-1-one hydrochloride], the MIC in [1] was 8 µg/mL; in [2], 16 µg/mL; in [3] it was 16 µg/mL; in test [4], 8 µg/mL; with Candida utilis IFO 0619, 2 µg/mL; in test [5], 32 µg/mL. In addition, the values for the minimum inhibitory concentration (MIC) (in the test on Candida krusei IFO 1162; against Candida krusei IFO 0584; in [8]) were 8 µg/mL, 8 µg/mL and 64 µg/mL, respectively. In addition, in test [6], the half-maximal inhibitory concentration (IC50) amounted to 15 nM. For the same molecule, the “Cholesterol synthesis in rat liver, % of control” value in [7] (30 mg/kg) was 48.9 % Control.

As for `CN(C)Cc1cc2c(o1)CN(C(=O)c1ccc(C(=O)c3ccccc3)cc1)CC2` [Example 11, N,N-dimethyl-[6-(4-benzoylbenzoyl)-4,5,6,7-tetrahydrofuro[2,3-c]pyridin-2-ylmethyl]amine hydrochloride], in test [6], the IC50 is 84 nM. For the same molecule, the “LDL Receptor Expression (% of Control)” value in the test with LDL receptor (0.2 μM) is recorded as 113.3 ± 10.6 % of Control; in the test on LDL receptor (2 μM, *p < 0.05) it was 143.1 ± 19.7 % of Control; in the test on LDL receptor (20 μM, *p < 0.05), 148.9 ± 20.5 % of Control. In addition, the results for the “Cholesterol synthesis in rat liver, % of control” value in [7] (0.3 mg/kg) and in test [7] (1.0 mg/kg) were 52.6 % Control and 23.3 % Control, respectively.

For the molecule `CNCc1cc2c(o1)CN(C(=O)CCCCCc1ccccc1)CC2` [Example 38, 1-(2-methylaminomethyl-5,7-dihydro-4H-furo[2,3-c]pyridin-6-yl)-6-phenylhexan-1-one hydrochloride], in test [7] (30 mg/kg), the “Cholesterol synthesis in rat liver, % of control” value turned out to be 29.9 % Control.

For `CCN(CC)Cc1cc2c(o1)CN(C(=O)c1ccc(C(=O)c3ccccc3)cc1)CC2` [Example 39, N,N-diethyl-[6-(4-benzoylbenzoyl)-4,5,6,7-tetrahydrofuro[2,3-c]pyridin-2-ylmethyl]amine hydrochloride], the “Cholesterol synthesis in rat liver, % of control” value in test [7] (3.0 mg/kg) was found to be 64.6 % Control.

Consider `CN(C)Cc1cc2c(o1)CCN(S(=O)(=O)CCCCCc1ccccc1)C2` [Example 53, N,N-dimethyl-[5-(5-phenylpentylsulfonyl)-4,5,6,7-tetrahydrofuro[3,2-c]pyridin-2-ylmethyl]amine hydrochloride], for which the “Cholesterol synthesis in rat liver, % of control” value in [7] (10 mg/kg) is 42.3 % Control.
